Activity calls are given as the source filed them. The calls are words filed in the database; no cut-off is given here.
Key:
[1] = target: T1, Cereblon/Casein kinase I alpha (Homo sapiens, UniProt P48729+Q96SW2); assay: Molecular glue activity at CRBN/HiBiT-tagged CK1-alpha in human Jurkat cells assessed as induction of CK1-alpha degradation incubated for 5 hrs by Nano-Glo HiBiT assay; type: cell-based
[2] = target: T1, Cereblon/Casein kinase I alpha; assay: Molecular glue activity at CRBN/CK1-alpha in human MOLT-4 cells with CRBN-/- assessed as induction of CK1-alpha degradation at 1 uM incubated for 5 hrs by quantitative mass spectrometry based proteomic analysis; type: cell-based
Target sequence in this assay (P48729 2-337 limits assumed): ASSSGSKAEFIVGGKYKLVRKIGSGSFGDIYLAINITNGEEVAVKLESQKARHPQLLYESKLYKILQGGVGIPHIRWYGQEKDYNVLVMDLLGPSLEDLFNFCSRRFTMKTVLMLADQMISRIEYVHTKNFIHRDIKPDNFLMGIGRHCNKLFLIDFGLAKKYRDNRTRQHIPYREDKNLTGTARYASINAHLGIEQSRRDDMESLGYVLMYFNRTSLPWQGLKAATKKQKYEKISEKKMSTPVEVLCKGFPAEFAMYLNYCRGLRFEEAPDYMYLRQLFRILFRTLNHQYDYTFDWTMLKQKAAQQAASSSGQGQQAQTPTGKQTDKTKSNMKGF
Target sequence in this assay (Q96SW2 whole entry partner): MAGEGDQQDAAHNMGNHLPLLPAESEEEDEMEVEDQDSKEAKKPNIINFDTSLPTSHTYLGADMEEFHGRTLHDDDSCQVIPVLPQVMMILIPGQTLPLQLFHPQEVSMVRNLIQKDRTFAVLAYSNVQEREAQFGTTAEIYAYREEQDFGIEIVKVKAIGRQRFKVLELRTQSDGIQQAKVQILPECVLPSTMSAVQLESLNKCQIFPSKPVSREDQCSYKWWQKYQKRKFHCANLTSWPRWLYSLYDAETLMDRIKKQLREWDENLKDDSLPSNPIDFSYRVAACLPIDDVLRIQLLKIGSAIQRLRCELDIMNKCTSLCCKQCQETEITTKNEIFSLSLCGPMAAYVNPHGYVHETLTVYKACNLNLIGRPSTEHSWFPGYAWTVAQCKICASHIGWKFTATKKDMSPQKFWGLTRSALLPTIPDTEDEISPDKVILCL

[3] = target: T1, Cereblon/Casein kinase I alpha; assay: Molecular glue activity at CRBN/CK1-alpha in human MOLM-13 cells assessed as increase in p21 level at 0.1 to 1 uM incubated for 24 hrs by Western blot analysis; type: cell-based; conditions: dose 0.1-1 µM
Target sequence in this assay (P48729 2-337 limits assumed): as the sequence (P48729 2-337 limits assumed) above
Target sequence in this assay (Q96SW2 whole entry partner): as the sequence (Q96SW2 whole entry partner) above

[4] = target: T1, Cereblon/Casein kinase I alpha; assay: Molecular glue activity at CRBN/CK1-alpha in human MOLM-13 cells assessed as increase in p53 level at 0.1 to 1 uM incubated for 24 hrs by Western blot analysis; type: cell-based; conditions: dose 0.1-1 µM
Target sequence in this assay (P48729 2-337 limits assumed): as the sequence (P48729 2-337 limits assumed) above
Target sequence in this assay (Q96SW2 whole entry partner): as the sequence (Q96SW2 whole entry partner) above

[5] = target: T1, Cereblon/Casein kinase I alpha; assay: Molecular glue activity at CRBN/CK1-alpha in human MOLM-13 cells assessed as increase in MDM2 level at 0.1 to 1 uM incubated for 24 hrs by Western blot analysis; type: cell-based; conditions: dose 0.1-1 µM
Target sequence in this assay (P48729 2-337 limits assumed): as the sequence (P48729 2-337 limits assumed) above
Target sequence in this assay (Q96SW2 whole entry partner): as the sequence (Q96SW2 whole entry partner) above

[6] = target: T1, Cereblon/Casein kinase I alpha; assay: Molecular glue activity at CRBN/CK1-alpha in human MOLM-14 cells assessed as increase in p21 level at 0.1 to 1 uM incubated for 24 hrs by Western blot analysis; type: cell-based; conditions: dose 0.1-1 µM
Target sequence in this assay (P48729 2-337 limits assumed): as the sequence (P48729 2-337 limits assumed) above
Target sequence in this assay (Q96SW2 whole entry partner): as the sequence (Q96SW2 whole entry partner) above

[7] = target: T1, Cereblon/Casein kinase I alpha; assay: Molecular glue activity at CRBN/CK1-alpha in human MOLM-14 cells assessed as increase in p53 level at 0.1 to 1 uM incubated for 24 hrs by Western blot analysis; type: cell-based; conditions: dose 0.1-1 µM
Target sequence in this assay (P48729 2-337 limits assumed): as the sequence (P48729 2-337 limits assumed) above
Target sequence in this assay (Q96SW2 whole entry partner): as the sequence (Q96SW2 whole entry partner) above

[8] = target: T1, Cereblon/Casein kinase I alpha; assay: Molecular glue activity at CRBN/CK1-alpha in human MOLM-14 cells assessed as increase in MDM2 level at 0.1 to 1 uM incubated for 24 hrs by Western blot analysis; type: cell-based; conditions: dose 0.1-1 µM
[9] = target: T1, Cereblon/Casein kinase I alpha; assay: Molecular glue activity at CRBN/CK1-alpha in human MOLT-4 cells assessed as induction of CK1-alpha degradation at 100 uM incubated for 5 hrs by Western blot analysis; type: cell-based
[10] = target: T1, Cereblon/Casein kinase I alpha; assay: Molecular glue activity at CRBN/CK1-alpha in human MOLT-4 cells assessed as induction of CK1-alpha degradation at 1 uM incubated for <3 hrs by Western blot analysis; type: cell-based
MOLM-13 = assay: Antiproliferative activity against human MOLM-13 cells incubated for 72 hrs by CellTiter-Glo Luminescent Cell Viability Assay; type: functional, cell-based; conditions: MOLM-13, 72 h
MOLM-14 [11] = assay: Antiproliferative activity against human MOLM-14 cells incubated for 72 hrs by CellTiter-Glo Luminescent Cell Viability Assay; type: functional, cell-based
MOLM-14 [12] = assay: Antiproliferative activity against human MOLM-14 cells with CRBN-/- incubated for 72 hrs by CellTiter-Glo Luminescent Cell Viability Assay; type: functional, cell-based
[13] = target: T1, Cereblon/Casein kinase I alpha; assay: Molecular glue activity at CRBN/CK1-alpha in human MOLM-13 cells assessed as induction of CK1-alpha degradation at 1 uM incubated for 5 hrs by Western blot analysis; type: cell-based
[14] = target: T1, Cereblon/Casein kinase I alpha; assay: Molecular glue activity at CRBN/CK1-alpha in human MOLM-14 cells assessed as induction of CK1-alpha degradation at 1 uM incubated for 5 hrs by Western blot analysis; type: cell-based
[15] = Metabolic stability in human liver microsomes assessed as half life; type: ADME, Microsome
[16] = Metabolic stability in mouse liver microsomes assessed as half life; type: ADME, Microsome; conditions: microsomes
[17] = Metabolic stability in human liver microsomes assessed as intrinsic clearance; type: ADME, Microsome
[18] = Metabolic stability in mouse liver microsomes assessed as intrinsic clearance; type: ADME, Microsome
MOLT-4 [19] = assay: Induction of GSPT1 degradation in human MOLT-4 cells at 1 uM incubated for 5 hrs by quantitative mass spectrometry based proteomic analysis; type: cell-based
MOLT-4 [20] = assay: Induction of WEE1 degradation in human MOLT-4 cells at 1 uM incubated for 5 hrs by quantitative mass spectrometry based proteomic analysis; type: cell-based
MOLT-4 [21] = assay: Induction of IKZF1 degradation in human MOLT-4 cells at 1 uM incubated for 5 hrs by quantitative mass spectrometry based proteomic analysis; type: cell-based
[22] = target: Zinc finger protein Aiolos (Homo sapiens) (UniProt Q9UKT9); assay: Induction of IKZF3 degradation in human MOLT-4 cells at 1 uM incubated for 5 hrs by quantitative mass spectrometry based proteomic analysis; type: cell-based
Sequence of Zinc finger protein Aiolos (Homo sapiens) (Q9UKT9 whole entry): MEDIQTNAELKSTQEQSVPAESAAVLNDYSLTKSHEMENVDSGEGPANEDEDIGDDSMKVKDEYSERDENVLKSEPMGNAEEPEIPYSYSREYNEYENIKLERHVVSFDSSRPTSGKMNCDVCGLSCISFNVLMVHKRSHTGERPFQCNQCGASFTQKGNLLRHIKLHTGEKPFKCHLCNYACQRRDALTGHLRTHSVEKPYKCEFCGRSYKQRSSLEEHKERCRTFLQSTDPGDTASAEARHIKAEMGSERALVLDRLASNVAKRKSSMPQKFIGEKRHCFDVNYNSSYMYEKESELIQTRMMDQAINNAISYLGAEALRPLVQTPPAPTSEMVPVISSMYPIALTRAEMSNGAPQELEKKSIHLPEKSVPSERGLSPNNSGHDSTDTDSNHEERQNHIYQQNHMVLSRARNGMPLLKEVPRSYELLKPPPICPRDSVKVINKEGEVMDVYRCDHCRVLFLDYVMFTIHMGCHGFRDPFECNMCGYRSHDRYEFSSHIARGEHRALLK

For `O=C1CCC(N2Cc3cc(CNC(=O)c4cnc5ccccc5c4)ccc3C2=O)C(=O)N1` (stereo not given), which DC50 [1] is on record?
The DC50 was > 10000 nM.

Which results are given for `COc1ccc2cc(C(=O)Nc3ccc4c(c3)CN(C3CCC(=O)NC3=O)C4=O)ccc2c1` (stereo not given)?
Activity [2]: Not active; Compound Induced Ck1-Alpha Degradation In A Crbn Dependent Manner; Activity [3]: Active; Activity [4]: Active; Activity [5]: Active; Activity [6]: Active; Activity [7]: Active; Activity [8]: Active

For `O=C1CCC(N2Cc3cc(NC(=O)c4cn5ccccc5n4)ccc3C2=O)C(=O)N1` (stereo not given), which DC50 [1] is on record?
Its DC50 is 5.7 nM.

What about the Activity [9] of the same compound?
Its Activity is “Active; Induces Maximum Degradation”.

And the Activity [10]?
The Activity was “Active”.

And the IC50 (MOLM-13)?
The IC50 was 41 nM.

And the Activity (MOLM-14 [11])?
The Activity was “Active”.

And the Activity (MOLM-14 [12])?
The Activity was “inactive”.

And the Activity [13]?
Its Activity is “Active”.

And the Activity [14]?
The Activity was “Active”.

What about the Activity [3] of the same compound?
Its Activity is “Active”.

What about the Activity [4] of the same compound?
Its Activity is “Active”.

What about the Activity [5] of the same compound?
The Activity was “Active”.

What about the Activity [6] of the same compound?
The Activity was “Active”.

What about the Activity [7] of the same compound?
The Activity was “Active”.

What about the Activity [8] of the same compound?
The Activity was “Active”.

What about the t1/2 [15] of the same compound?
The t1/2 was > 120 min.

What about the t1/2 [16] of the same compound?
The t1/2 was 75.4 min.

And the CLH [17]?
The CLH was < 6 µL/min/mg.

And the CLH [18]?
Its CLH is 9 µL/min/mg.

For `O=C1CCC(N2C(=O)c3ccc(NC(=O)c4cnc5ccccc5c4)cc3C2=O)C(=O)N1` (stereo not given), which DC50 [1] is on record?
Its DC50 is 79 nM.

Which DC50 [1] does the source give for `O=C1CCC(N2Cc3cc(CNC(=O)c4cn5ccccc5n4)ccc3C2=O)C(=O)N1` (stereo not given) here?
Its DC50 is > 10000 nM.

With `COc1cccn2cc(C(=O)Nc3ccc4c(c3)CN(C3CCC(=O)NC3=O)C4=O)nc12` (stereo not given) as the compound, how does the DC50 [1] read?
Its DC50 is 8.1 nM.

What about the EC90 [1] of the same compound?
The EC90 was 73.1 nM.

For `O=C1CCC(N2Cc3c(NC(=O)c4cnc5ccccc5c4)cccc3C2=O)C(=O)N1` (stereo not given), which DC50 [1] is on record?
The DC50 was > 10000 nM.

Which DC50 [1] does the source give for `Cc1c(C(=O)Nc2ccc3c(c2)CN(C2CCC(=O)NC2=O)C3=O)nc2ccccn12` (stereo not given) here?
Its DC50 is 8.4 nM.

Which DC50 [1] does the source give for `O=C1CCC(N2Cc3cc(NC(=O)c4cn5cccc(C(F)(F)F)c5n4)ccc3C2=O)C(=O)N1` (stereo not given) here?
Its DC50 is 1.6 nM.

And the EC90 [1]?
Its EC90 is 25 nM.

And the IC50 (MOLM-13)?
The IC50 was 29 nM.

What about the Activity (MOLM-14 [11]) of the same compound?
The Activity was “Active”.

What about the Activity (MOLM-14 [12]) of the same compound?
The Activity was “inactive”.

And the Activity [13]?
The Activity was “Active”.

And the Activity [14]?
Its Activity is “Active”.

Which results are given for `O=C1CCC(N2Cc3cc(NC(=O)c4cn5cc(F)ccc5n4)ccc3C2=O)C(=O)N1` (stereo not given)?
DC50 [1]: 6.1 nM; EC90 [1]: 45.5 nM

Which DC50 [1] does the source give for `O=C1CCC(N2Cc3cc(NC(=O)c4cc5ncccn5n4)ccc3C2=O)C(=O)N1` (stereo not given) here?
The DC50 was 61 nM.

Which DC50 [1] does the source give for `CN1C(=O)CCC(N2Cc3cc(NC(=O)c4cn5ccccc5n4)ccc3C2=O)C1=O` (stereo not given) here?
The DC50 was > 10000 nM.

And the Activity [13]?
Its Activity is “Active”.

And the Activity [14]?
The Activity was “Active”.

Which Activity (MOLT-4 [19]) does the source give for `O=C1CCC(N2Cc3cc(NC(=O)c4cc5ccccc5cn4)ccc3C2=O)C(=O)N1` (stereo not given) here?
Its Activity is “inactive”.

What about the Activity (MOLT-4 [20]) of the same compound?
The Activity was “inactive”.

What about the DC50 [1] of the same compound?
The DC50 was 7.56 nM.

And the Activity (MOLT-4 [21])?
Its Activity is “inactive”.

And the Activity [22]?
The Activity was “inactive”.

What does the source list for `O=C1CCC(N2Cc3cc(NC(=O)c4cn5ccc(F)cc5n4)ccc3C2=O)C(=O)N1` (stereo not given)?
DC50 [1]: 17.5 nM; EC90 [1]: 135 nM

Which results are given for `COc1ccn2cc(C(=O)Nc3ccc4c(c3)CN(C3CCC(=O)NC3=O)C4=O)nc2c1` (stereo not given)?
DC50 [1]: 3.1 nM; EC90 [1]: 53 nM

Which DC50 [1] does the source give for `O=C1CCC(N2Cc3cc(NC(=O)c4nc5ccccc5[nH]4)ccc3C2=O)C(=O)N1` (stereo not given) here?
Its DC50 is 11.1 nM.

Reference: ChEMBL document CHEMBL6153096, “Development of Potent and Selective CK1α Molecular Glue Degraders” (J Med Chem, 2025)
